Source: ChEMBL document CHEMBL1201862, “PubChem BioAssay data set” (2004)
The source made the active and inactive calls.

Key:
[1] = biological target: T1, Calpain-2 catalytic subunit (Sus scrofa, UniProt P43367); test: m-calpain protease blockers, concentration series – biochemical, fluorogenic peptide substrate, dose response (AID 1420); type: functional
T1 sequence (P43367 whole entry): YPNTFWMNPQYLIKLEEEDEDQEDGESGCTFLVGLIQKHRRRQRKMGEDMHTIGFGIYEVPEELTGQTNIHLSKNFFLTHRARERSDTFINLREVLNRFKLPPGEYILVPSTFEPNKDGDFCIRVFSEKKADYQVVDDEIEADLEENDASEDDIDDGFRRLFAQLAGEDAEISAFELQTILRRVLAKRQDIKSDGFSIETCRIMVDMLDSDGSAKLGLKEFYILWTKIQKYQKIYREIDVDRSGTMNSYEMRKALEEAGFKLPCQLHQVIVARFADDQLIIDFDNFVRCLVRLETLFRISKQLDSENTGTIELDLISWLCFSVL

Protein RecA = biological target: T2, Protein RecA (Mycobacterium tuberculosis, UniProt P9WHJ3); test: Fluorescence Cell-Free Homogeneous Dose Retest to Identify Inhibitors of RecA-Intein Splicing Activity. [Related pubchem assays (depositor defined):AID2097, AID2223, AID489010, AID492950]; type: functional
T2 sequence (P9WHJ3 whole entry): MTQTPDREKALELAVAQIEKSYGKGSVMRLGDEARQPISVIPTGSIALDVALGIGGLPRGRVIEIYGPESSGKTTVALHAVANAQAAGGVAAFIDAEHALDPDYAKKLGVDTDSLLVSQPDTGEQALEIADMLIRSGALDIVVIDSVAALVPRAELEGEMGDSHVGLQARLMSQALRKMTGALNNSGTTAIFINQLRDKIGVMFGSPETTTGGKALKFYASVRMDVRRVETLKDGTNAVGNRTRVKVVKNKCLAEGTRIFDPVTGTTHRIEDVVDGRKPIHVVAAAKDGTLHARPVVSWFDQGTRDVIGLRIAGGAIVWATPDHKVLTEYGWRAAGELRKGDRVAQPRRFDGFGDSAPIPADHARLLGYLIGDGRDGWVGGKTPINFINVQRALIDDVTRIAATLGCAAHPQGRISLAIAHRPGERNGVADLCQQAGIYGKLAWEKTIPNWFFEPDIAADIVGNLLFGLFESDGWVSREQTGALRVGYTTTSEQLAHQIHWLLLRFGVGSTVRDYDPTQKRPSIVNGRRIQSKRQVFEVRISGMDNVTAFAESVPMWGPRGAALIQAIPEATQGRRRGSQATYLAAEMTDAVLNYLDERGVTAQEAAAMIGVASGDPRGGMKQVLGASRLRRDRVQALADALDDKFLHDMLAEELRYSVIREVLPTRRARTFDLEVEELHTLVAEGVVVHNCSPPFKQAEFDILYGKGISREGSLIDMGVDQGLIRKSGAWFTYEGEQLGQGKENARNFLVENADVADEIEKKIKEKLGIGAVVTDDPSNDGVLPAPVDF

[2] = biological target: T3, Replicative DNA helicase DnaB (Mycobacterium tuberculosis, UniProt P9WMR3); test: DnaB intein splicing inhibitors, dose response, biochemical, cell-free fluorescence (AID 449749); type: functional
T3 sequence (P9WMR3 whole entry): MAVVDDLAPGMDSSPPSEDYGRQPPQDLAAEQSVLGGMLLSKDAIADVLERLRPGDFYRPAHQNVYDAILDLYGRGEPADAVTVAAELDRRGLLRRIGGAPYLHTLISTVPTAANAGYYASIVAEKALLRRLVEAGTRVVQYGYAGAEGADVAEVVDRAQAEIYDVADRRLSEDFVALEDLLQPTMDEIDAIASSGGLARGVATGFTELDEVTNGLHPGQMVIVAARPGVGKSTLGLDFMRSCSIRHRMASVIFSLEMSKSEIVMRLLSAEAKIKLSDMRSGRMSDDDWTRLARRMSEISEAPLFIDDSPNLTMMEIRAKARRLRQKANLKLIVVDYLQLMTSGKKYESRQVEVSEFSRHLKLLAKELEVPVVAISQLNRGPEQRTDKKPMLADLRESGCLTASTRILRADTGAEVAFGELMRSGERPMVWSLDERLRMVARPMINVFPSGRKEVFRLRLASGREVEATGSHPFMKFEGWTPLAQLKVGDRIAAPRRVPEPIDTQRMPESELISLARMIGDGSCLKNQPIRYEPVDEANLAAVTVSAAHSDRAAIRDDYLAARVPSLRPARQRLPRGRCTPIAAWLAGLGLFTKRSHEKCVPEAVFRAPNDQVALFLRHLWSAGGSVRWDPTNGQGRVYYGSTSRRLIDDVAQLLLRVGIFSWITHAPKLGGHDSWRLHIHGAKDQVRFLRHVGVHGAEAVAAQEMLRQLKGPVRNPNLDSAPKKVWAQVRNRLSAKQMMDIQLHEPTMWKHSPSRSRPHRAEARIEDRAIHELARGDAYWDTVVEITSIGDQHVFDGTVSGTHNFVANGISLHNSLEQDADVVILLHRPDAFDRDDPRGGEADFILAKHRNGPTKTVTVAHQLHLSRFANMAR

H9c2 = test: cells; type: functional, cell-based; details: Rattus norvegicus, H9c2, Myocardium
[3] = fluconazole-exposed Candida albicans growth modulators – fluorescence, retest, confirmation (AID 2467); type: functional, cell-based
[4] = NIH-3T3 fibroblast cytotoxicity, dose response, cytotoxicity control, cell-based, fluorescence, Alamar Blue, secondary assay (AID 2327); type: functional;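 note: NIH-3T3 mouse fibroblasts cultured with fluconazole at 8 µg/mL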
H4 = test: Luminescence Cell-Based Dose Response HTS to Identify Activators of 5'UTR Stem-Loop Driven Prion Protein mRNA Translation in H4 Neuroglioblastoma Cells. [Related pubchem assays: 1829 (Project Summary), 1814 (Primary HTS)]; type: functional; details: Homo sapiens
[5] = Luminescence Cell-Based Dose Response HTS to Identify Activators of Luciferase Translation or Activity in H4 […] Cells. [Related pubchem assays: 1829 (Project Summary), 1814 (Primary HTS)]; type: functional
Large T antigen = Large T antigen (Simian virus 40, UniProt P03070); type: functional, Betapolyomavirus macacae;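 note: Confirmatory-stage PubChem screen for compounds that inhibit SV40 T antigen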
Large T antigen, sequence (P03070 whole entry): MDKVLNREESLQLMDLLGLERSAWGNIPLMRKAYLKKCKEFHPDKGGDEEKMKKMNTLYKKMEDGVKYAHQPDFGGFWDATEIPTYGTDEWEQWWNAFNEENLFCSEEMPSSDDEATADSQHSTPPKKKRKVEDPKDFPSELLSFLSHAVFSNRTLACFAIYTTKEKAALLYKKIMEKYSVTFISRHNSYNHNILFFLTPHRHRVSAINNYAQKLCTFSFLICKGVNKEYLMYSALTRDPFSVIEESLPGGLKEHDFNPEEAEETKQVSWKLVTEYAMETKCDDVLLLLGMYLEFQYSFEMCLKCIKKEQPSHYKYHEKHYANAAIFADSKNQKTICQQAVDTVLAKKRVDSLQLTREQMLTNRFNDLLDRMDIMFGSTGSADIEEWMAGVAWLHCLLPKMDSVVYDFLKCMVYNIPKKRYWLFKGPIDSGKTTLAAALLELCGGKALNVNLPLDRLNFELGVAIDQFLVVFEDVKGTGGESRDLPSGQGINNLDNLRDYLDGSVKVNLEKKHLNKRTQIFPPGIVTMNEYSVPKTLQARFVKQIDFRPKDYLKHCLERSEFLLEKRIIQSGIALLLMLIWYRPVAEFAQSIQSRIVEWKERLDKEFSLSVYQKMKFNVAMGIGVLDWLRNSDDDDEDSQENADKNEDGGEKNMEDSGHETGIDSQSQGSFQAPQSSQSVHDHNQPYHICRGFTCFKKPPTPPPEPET

Paired box protein Pax-8 = Paired box protein Pax-8 (Homo sapiens, UniProt Q06710); test: PAX8 transcriptional activity inhibition in RMG-I – RMG-I cells, luciferase, cherry-pick, dose response (AID 687027); type: functional, cell-based;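 note: luciferase reporter driven by Pax8 target thyroperoxidase promoter measured by SteadyGlo luminescence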
Paired box protein Pax-8, sequence (Q06710 whole entry): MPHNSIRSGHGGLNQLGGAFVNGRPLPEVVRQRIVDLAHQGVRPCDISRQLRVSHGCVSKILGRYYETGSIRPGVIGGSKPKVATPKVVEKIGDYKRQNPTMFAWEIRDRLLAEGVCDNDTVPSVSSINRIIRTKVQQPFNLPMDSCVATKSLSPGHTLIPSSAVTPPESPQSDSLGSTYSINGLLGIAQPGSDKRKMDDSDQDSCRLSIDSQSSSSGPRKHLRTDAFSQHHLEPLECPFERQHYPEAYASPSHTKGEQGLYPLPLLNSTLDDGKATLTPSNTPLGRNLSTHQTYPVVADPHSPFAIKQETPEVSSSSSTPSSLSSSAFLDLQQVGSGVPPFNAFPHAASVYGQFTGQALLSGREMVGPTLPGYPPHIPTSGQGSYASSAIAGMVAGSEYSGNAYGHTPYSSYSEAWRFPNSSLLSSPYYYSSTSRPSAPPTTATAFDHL

Cytochrome P450 2C19 = Cytochrome P450 2C19 (Homo sapiens, UniProt P33261); test: Cytochrome panel assay with activity outcomes. Panel member name: p450-cyp2c19 Compounds with AC50 equal or less than 10 uM are considered active; type: functional; details: read-out: AC50
Cytochrome P450 2C19, sequence (P33261 whole entry): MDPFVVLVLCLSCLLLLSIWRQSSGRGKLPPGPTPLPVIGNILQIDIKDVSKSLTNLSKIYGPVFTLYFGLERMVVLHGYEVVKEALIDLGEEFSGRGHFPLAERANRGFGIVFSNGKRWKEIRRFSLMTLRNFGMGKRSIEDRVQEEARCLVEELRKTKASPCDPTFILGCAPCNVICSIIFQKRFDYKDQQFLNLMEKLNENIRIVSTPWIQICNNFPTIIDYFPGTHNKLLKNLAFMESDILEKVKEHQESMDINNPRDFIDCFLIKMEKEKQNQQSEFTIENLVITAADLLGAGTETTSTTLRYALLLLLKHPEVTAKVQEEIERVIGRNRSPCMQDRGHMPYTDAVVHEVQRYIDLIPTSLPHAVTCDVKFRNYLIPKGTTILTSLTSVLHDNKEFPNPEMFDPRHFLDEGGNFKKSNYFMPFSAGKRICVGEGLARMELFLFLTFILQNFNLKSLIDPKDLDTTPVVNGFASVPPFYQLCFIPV

Cytochrome P450 1A2 = biological target: T4, Cytochrome P450 1A2 (Homo sapiens, UniProt P05177);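 note: PubChem cytochrome P450 panel assay, CYP1A2 panel member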
T4 sequence (P05177 whole entry): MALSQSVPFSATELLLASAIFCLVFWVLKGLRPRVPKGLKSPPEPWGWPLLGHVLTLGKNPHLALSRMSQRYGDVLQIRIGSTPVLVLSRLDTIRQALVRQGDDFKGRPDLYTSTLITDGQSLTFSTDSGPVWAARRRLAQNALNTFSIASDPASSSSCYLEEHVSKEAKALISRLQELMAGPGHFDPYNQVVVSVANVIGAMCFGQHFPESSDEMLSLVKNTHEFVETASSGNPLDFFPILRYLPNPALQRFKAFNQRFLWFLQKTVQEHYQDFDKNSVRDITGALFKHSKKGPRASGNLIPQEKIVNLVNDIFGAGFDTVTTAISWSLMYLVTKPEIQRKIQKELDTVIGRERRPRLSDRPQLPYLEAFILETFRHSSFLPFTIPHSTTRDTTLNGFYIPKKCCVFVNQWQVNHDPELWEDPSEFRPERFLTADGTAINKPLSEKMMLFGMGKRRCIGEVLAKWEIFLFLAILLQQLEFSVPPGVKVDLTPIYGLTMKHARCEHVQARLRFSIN

## Cc1cc(NC(=O)CCN2C(=O)/C(=C/c3ccccc3Cl)SC2=S)no1
[1]
  IC50: > 50 µM (not active)

## O=C(NC1CCCCC1)C1c2ccccc2C(=O)N1Cc1ccc2c(c1)OCO2 (stereo not drawn)
[1]
  IC50: 20.2 µM (not active)

## CCC(=O)Nc1c(C)nn(C(=O)CC)c1C
Protein RecA
  EC50: > 380 µM (inactive)
[2]
  AC50: > 380 µM (inactive)

## Cc1ccc(NC(=O)c2cc(=O)c3ccccc3o2)cc1S(=O)(=O)N1CCOCC1
H9c2
  IC50: > 79 µM (inactive)

## O=C1c2ccccc2C(=O)N1CCCC(=O)N1CCCc2ccccc21
[1]
  IC50: > 50 µM (not active)

## Cc1nn(-c2cccc(Cl)c2)c2c1C(c1cccnc1)C(C#N)=C(N)O2 (stereo not drawn)
Protein RecA
  EC50: 5.05 µM (active)
[2]
  AC50: 16.7 µM (active)

## OC1=C2C(=Nc3nn(-c4ccccc4)c(O)c3C2c2ccc3c(c2)OCO3)CCC1 (stereo not drawn)
Protein RecA
  EC50: 3.29 µM (active)
[2]
  AC50: 40.9 µM (active)

## Cc1ccc(-n2c(S)nnc2Cc2ccccc2)c(C)c1
[3]
  EC50: 2.71 µM (active)
[4]
  EC50: > 150 µM (inactive)

## CCCCSc1nnc(-c2ccccc2)c2ccccc12
[1]
  IC50: 9.31 µM (not active)

## O=C(Cn1cnc2c(nnn2Cc2ccc(F)cc2)c1=O)NC1CCCC1
[3]
  EC50: > 38 µM (not active)
[4]
  EC50: > 150 µM (inactive)

## CCCc1cc(O)nc(SCC(=O)Nc2ccc(Br)cc2Br)n1
[3]
  EC50: 1.38 µM (active)
[4]
  EC50: 84.5 µM (active)

## CCCCCCCCNC(=O)c1ccc(C)cc1
[1]
  IC50: 10.1 µM (not active)

## CC(C)(C)c1ccc(CNc2ccc([N+](=O)[O-])cn2)cc1
[1]
  IC50: 5.15 µM (active)

## O=C(Nc1ncc([N+](=O)[O-])s1)c1ccco1
Protein RecA
  EC50: 17.4 µM (active)
[2]
  AC50: 24.2 µM (active)

## CCOc1ccc(N2C(=O)/C(=C/c3ccccc3)N=C2SC)cc1
H4
  EC50: 108 µM (active)
[5]
  EC50: 0.135 µM (active)

## C=CCn1c(SCc2nc(O)c3ccccc3n2)nnc1-c1cc2cc(Cl)ccc2o1
[3]
  EC50: 0.052 µM (active)
[4]
  EC50: > 150 µM (inactive)

## Nc1cc(Oc2cccnc2)cc([N+](=O)[O-])c1
[1]
  IC50: > 50 µM (not active)

## O=C(Cc1cn(Cc2cccc(Cl)c2)c2ccccc12)N1CCCC1
[1]
  IC50: 17.1 µM (not active)

## Cc1ccc(-c2nnc(Nc3ccc(O)cc3)c3ccccc23)cc1S(=O)(=O)NCCO
Large T antigen
  IC50: 13.2 µM (active)

## COc1ccc(N2C(=O)C(Cl)=C(NCc3ccccc3)C2=O)cc1
Protein RecA
  EC50: 12.9 µM (active)
[2]
  AC50: 68.8 µM (active)

## Cn1c2c(c(=O)n(C)c1=O)C(c1ccc(Br)cc1)Nc1ccccc1O2 (stereo not drawn)
H9c2
  IC50: 25.7 µM (active)

## O=C(CCCN1C(=O)/C(=C/c2cccc(Br)c2)SC1=S)Nc1ccccn1
Paired box protein Pax-8
  AC50: 5.71 µM (active)

## CN(C(=O)c1sc2nc(N3CCOCC3)c3c(c2c1N)CCCC3)c1ccccc1
H9c2
  IC50: > 79 µM (inactive)

## Cc1cccc(Oc2cc(N)cc([N+](=O)[O-])c2)c1
[1]
  IC50: > 50 µM (not active)

## O=C(CCNC(=O)c1ccc(Br)cc1)Nc1nccs1
[3]
  EC50: > 38 µM (not active)
[4]
  EC50: 23.9 µM (inconclusive)

## COc1ccc(C2CCCCCN2C(=O)C2CCN(S(=O)(=O)c3cccc(C(C)=O)c3)CC2)cc1 (stereo not drawn)
H9c2
  IC50: > 79 µM (inactive)

## COc1cc(CN2C[C@@H](CO)O[C@@H](n3cnc4c(Nc5ccccc5)ncnc43)C2)cc(OC)c1OC
H9c2
  IC50: 9.14 µM (active)

## Cc1nn(-c2ccccc2)nc1C(=O)Nc1cccc(C(=O)NC2CC2)c1
H9c2
  IC50: > 79 µM (inactive)

## COc1ccc(/C=N/NC(=O)c2sccc2OCc2ccc(F)cc2)cc1OC
Cytochrome P450 2C19
  AC50: 17.8 µM (inconclusive)
Cytochrome P450 1A2
  AC50: 14.1 µM (inconclusive)
H9c2
  IC50: > 79 µM (inactive)

## COCCNC(=S)N/N=C(\C)c1ccc(O)cc1
Large T antigen
  IC50: 10.8 µM (active)

## CO[C@H]1CN(C)C(=O)c2cc(NC(=O)c3nc4ccccc4s3)ccc2OC[C@H](C)N(Cc2cccnc2)C[C@H]1C
Paired box protein Pax-8
  AC50: 18.8 µM (active)

## CCCn1c(=O)c2[nH]c(-c3ccc(OCC(=O)Nc4ccc(C#N)cc4)cc3)nc2n(CCC)c1=O
Cytochrome P450 1A2
  AC50: 31.6 µM (inconclusive)
H9c2
  IC50: > 79 µM (inactive)

## COc1ccc(C(=O)N/N=C\c2coc3ccc(Cl)cc3c2=O)cc1
Protein RecA
  EC50: 19.8 µM (active)
[2]
  AC50: > 120 µM (inactive)

## C(=N\Nc1nc2ccccc2[nH]1)/c1cccs1
Large T antigen
  IC50: 16.9 µM (active)

## O=C(Cc1cc(O)n[nH]1)N/N=C/c1ccccc1Cl
Protein RecA
  EC50: 1.26 µM (active)
[2]
  AC50: 2 µM (active)

## Cc1ccc(S(=O)(=O)/N=C(/c2ccccc2)N2CCOCC2)c(C)c1
[3]
  EC50: > 38 µM (not active)
[4]
  EC50: > 160 µM (inconclusive)
